Data taken from the NIST ThermoML archive (doi:10.1021/je201283n).

Details: Liquid, isochoric method

CCn1cc[n+](C)c1.N#CN=C=[N-] [1-ethyl-3-methylimidazolium dicyanamide]
Details | mass density [kg/m3]
256.82 K, 20357 kPa | 1142.71
256.92 K, 29975 kPa | 1145.41
256.97 K, 10611 kPa | 1139.49
257.12 K, 1250.8 kPa | 1136.35
261.97 K, 9950.2 kPa | 1135.94
262.11 K, 19886 kPa | 1139.04
262.33 K, 39980 kPa | 1144.93
262.46 K, 619.6 kPa | 1132.49
267.67 K, 20023 kPa | 1135.45
267.67 K, 39943 kPa | 1141.75
267.7 K, 9753.2 kPa | 1132.18
267.7 K, 9894 kPa | 1132.04
267.7 K, 29879 kPa | 1138.56
267.7 K, 29968 kPa | 1138.56
267.7 K, 49706 kPa | 1144.45
267.71 K, 20196 kPa | 1135.44
267.71 K, 40066 kPa | 1141.75
267.71 K, 49662 kPa | 1144.45
268.06 K, 649.7 kPa | 1128.69
273.25 K, 29805 kPa | 1134.96
273.34 K, 49967 kPa | 1141.26
273.4 K, 39951 kPa | 1138.06
273.49 K, 19943 kPa | 1131.55
273.51 K, 10041 kPa | 1128.22
273.55 K, 60051 kPa | 1143.95
274.21 K, 775.7 kPa | 1124.56
278.57 K, 59071 kPa | 1140.8
279.2 K, 40050 kPa | 1134.45
279.22 K, 50024 kPa | 1137.55
279.41 K, 30010 kPa | 1131.04
279.59 K, 10349 kPa | 1124.23
279.65 K, 9960.6 kPa | 1124.1
279.66 K, 20569 kPa | 1127.7
280.01 K, 1016.8 kPa | 1120.72
280.04 K, 1077.6 kPa | 1120.72
285.08 K, 50002 kPa | 1133.94
285.13 K, 60064 kPa | 1137.04
285.39 K, 9816.5 kPa | 1120.27
285.42 K, 40116 kPa | 1130.53
285.43 K, 19560 kPa | 1123.61
285.44 K, 19459 kPa | 1123.61
285.45 K, 9814.9 kPa | 1120.27
285.5 K, 20153 kPa | 1123.73
285.51 K, 30235 kPa | 1127.2
286.62 K, 2009 kPa | 1116.68
291.09 K, 59995 kPa | 1133.42
291.45 K, 50059 kPa | 1130.01
291.47 K, 9754 kPa | 1116.28
291.47 K, 50178 kPa | 1130.13
291.51 K, 40153 kPa | 1126.69
291.61 K, 19904 kPa | 1119.75
291.79 K, 29944 kPa | 1123.08
297.62 K, 60101 kPa | 1129.48
297.75 K, 50232 kPa | 1126.16
297.91 K, 20011 kPa | 1115.75
297.98 K, 30141 kPa | 1119.22
298.08 K, 1020.2 kPa | 1108.78
298.16 K, 103.4 kPa | 1108.35
298.16 K, 40265 kPa | 1122.54
303.94 K, 60074 kPa | 1125.65
304.2 K, 39942 kPa | 1118.71
304.23 K, 49724 kPa | 1122.03
304.28 K, 29918 kPa | 1115.22
304.34 K, 10634 kPa | 1108.27
310.52 K, 20049 kPa | 1107.77
310.57 K, 59616 kPa | 1121.51
310.65 K, 49941 kPa | 1118.17
310.81 K, 40003 kPa | 1114.68
311.24 K, 1092 kPa | 1100.23
317.17 K, 9765 kPa | 1099.76
317.19 K, 29905 kPa | 1107.23
317.23 K, 59899 kPa | 1117.62
317.44 K, 50073 kPa | 1114.13
324.19 K, 60082 kPa | 1113.57
324.28 K, 20103 kPa | 1099.19
325.02 K, 1127.1 kPa | 1091.44
331.28 K, 30008 kPa | 1098.63
331.29 K, 9862.4 kPa | 1090.95
337.92 K, 60055 kPa | 1105.54
338.39 K, 40023 kPa | 1098.06
338.74 K, 20149 kPa | 1090.36
339.67 K, 1074 kPa | 1082.2
345.69 K, 50073 kPa | 1097.48
346.21 K, 30275 kPa | 1089.77
346.22 K, 9873.1 kPa | 1081.75
